For 16 molecules, Emax and EC50 results are on record in patent US9399648B2, “Isothiazolopyridinones useful for the treatment of (inter alia) cystic fibrosis” (Vertex Pharmaceuticals Incorporated, priority 2007, dated 2016).

SMILES strings stand for the structures.

This test concerns the target T1, ΔF508-CFTR (Homo sapiens, UniProt P13569, DEL508-508).
T1 construct: expressed in transfected cells; host or cells: Fisher rat […] (FRT) cells expressing ΔF508-CFTR (Ussing chamber); NIH3T3 cells stably expressing ΔF508-CFTR (whole-cell recording)
As to the kind of experiment: Assays for detecting and measuring ΔF508-CFTR potentiation properties of compounds (membrane potential optical / Ussing chamber / whole-cell recording). It counts as cell-based. Conditions: for Emax: relative efficacy, efficacy of putative ΔF508-CFTR potentiators compared to known potentiator genistein; for EC50: ΔF508-CFTR potentiation, the specific assay format behind Table 3 is not stated. The source says:
Assays for Detecting and Measuring ΔF508-CFTR Potentiation Properties of Compounds
Membrane Potential Optical Methods for Assaying ΔF508-CFTR Modulation Properties of Compounds
The optical membrane potential assay utilized voltage-sensitive FRET sensors described by Gonzalez and Tsien (See Gonzalez, J. E. and R. Y. Tsien (1995) “Voltage sensing by fluorescence resonance energy transfer in single cells” Biophys J 69(4): 1272-80, and Gonzalez, J. E. and R. Y. Tsien (1997) “Improved indicators of cell membrane potential that use fluorescence resonance energy transfer” Chem Biol 4(4): 269-77) in combination with instrumentation for measuring fluorescence changes such as the Voltage/Ion Probe Reader (VIPR) (See Gonzalez, J. E., K. Oades, et al. (1999) “Cell-based assays and instrumentation for screening ion-channel targets” Drug Discov Today 4(9): 431-439).
These voltage sensitive assays are based on the change in fluorescence resonant energy transfer (FRET) between the membrane-soluble, voltage-sensitive dye, DiSBAC2(3), and a fluorescent phospholipid, CC2-DMPE, which is attached to the outer leaflet of the plasma membrane and acts as a FRET donor. Changes in membrane potential (Vm) cause the negatively charged DiSBAC2(3) to redistribute across the plasma membrane and the amount of energy transfer from CC2-DMPE changes accordingly. The changes in fluorescence emission were monitored using VIPR™ II, which is an integrated liquid handler and fluorescent detector designed to conduct cell-based screens in 96- or 384-well microtiter plates.
Identification of Potentiator Compounds
Typical protocol utilized a basolateral to apical membrane Cl^− concentration gradient. To set up this gradient, normal ringers was used on the basolateral membrane and was permeabilized with nystatin (360 μg/m), whereas apical NaCl was replaced by equimolar sodium gluconate (titrated to pH 7.4 with NaOH) to give a large Cl^− concentration gradient across the epithelium. All experiments were performed 30 min after nystatin permeabilization. Forskolin (10 μM) and all test compounds were added to both sides of the cell culture inserts. The efficacy of the putative ΔF508-CFTR potentiators was compared to that of the known potentiator, genistein.
Solutions • Basolateral solution (in mM): NaCl (135), CaCl2 (1.2), MgCl2 (1.2), K2HPO4 (2.4), KHPO4 (0.6), N-2-hydroxyethylpiperazine-N′-2-ethanesulfonic acid (HEPES) (10), and dextrose (10). The solution was titrated to pH 7.4 with NaOH. • Apical solution (in mM): Same as basolateral solution with NaCl replaced with Na Gluconate (135).
Fisher rat […] (FRT) cells expressing ΔF508-CFTR (FRTΔ^F508-CFTR) were used for Ussing chamber experiments for the putative ΔF508-CFTR modulators identified from our optical assays. The cells were cultured on Costar Snapwell cell culture inserts and cultured for five days at 37° C. and 5% CO2 in Coon's modified Ham's F-12 medium supplemented with 5% fetal calf serum, 100 U/ml penicillin, and 100 μg/m streptomycin. Prior to use for characterizing the potentiator activity of compounds, the cells were incubated at 27° C. for 16-48 hrs to correct for the ΔF508-CFTR. To determine the activity of corrections compounds, the cells were incubated at 27° C. or 37° C. with and without the compounds for 24 hours.
The macroscopic ΔF508-CFTR current (IΔF508) in temperature- and test compound-corrected NIH3T3 cells stably expressing ΔF508-CFTR were monitored using the perforated-patch, whole-cell recording. Briefly, voltage-clamp recordings of IΔF508 were performed at room temperature using an Axopatch 200B patch-clamp amplifier (Axon Instruments Inc., Foster City, Calif.). All recordings were acquired at a sampling frequency of 10 kHz and low-pass filtered at 1 kHz. […] Under these recording conditions, the calculated reversal potential for Cl^− (ECl) at room temperature was −28 mV. […]

T1 sequence (P13569 with tags, fused parts or gaps DEL508-508): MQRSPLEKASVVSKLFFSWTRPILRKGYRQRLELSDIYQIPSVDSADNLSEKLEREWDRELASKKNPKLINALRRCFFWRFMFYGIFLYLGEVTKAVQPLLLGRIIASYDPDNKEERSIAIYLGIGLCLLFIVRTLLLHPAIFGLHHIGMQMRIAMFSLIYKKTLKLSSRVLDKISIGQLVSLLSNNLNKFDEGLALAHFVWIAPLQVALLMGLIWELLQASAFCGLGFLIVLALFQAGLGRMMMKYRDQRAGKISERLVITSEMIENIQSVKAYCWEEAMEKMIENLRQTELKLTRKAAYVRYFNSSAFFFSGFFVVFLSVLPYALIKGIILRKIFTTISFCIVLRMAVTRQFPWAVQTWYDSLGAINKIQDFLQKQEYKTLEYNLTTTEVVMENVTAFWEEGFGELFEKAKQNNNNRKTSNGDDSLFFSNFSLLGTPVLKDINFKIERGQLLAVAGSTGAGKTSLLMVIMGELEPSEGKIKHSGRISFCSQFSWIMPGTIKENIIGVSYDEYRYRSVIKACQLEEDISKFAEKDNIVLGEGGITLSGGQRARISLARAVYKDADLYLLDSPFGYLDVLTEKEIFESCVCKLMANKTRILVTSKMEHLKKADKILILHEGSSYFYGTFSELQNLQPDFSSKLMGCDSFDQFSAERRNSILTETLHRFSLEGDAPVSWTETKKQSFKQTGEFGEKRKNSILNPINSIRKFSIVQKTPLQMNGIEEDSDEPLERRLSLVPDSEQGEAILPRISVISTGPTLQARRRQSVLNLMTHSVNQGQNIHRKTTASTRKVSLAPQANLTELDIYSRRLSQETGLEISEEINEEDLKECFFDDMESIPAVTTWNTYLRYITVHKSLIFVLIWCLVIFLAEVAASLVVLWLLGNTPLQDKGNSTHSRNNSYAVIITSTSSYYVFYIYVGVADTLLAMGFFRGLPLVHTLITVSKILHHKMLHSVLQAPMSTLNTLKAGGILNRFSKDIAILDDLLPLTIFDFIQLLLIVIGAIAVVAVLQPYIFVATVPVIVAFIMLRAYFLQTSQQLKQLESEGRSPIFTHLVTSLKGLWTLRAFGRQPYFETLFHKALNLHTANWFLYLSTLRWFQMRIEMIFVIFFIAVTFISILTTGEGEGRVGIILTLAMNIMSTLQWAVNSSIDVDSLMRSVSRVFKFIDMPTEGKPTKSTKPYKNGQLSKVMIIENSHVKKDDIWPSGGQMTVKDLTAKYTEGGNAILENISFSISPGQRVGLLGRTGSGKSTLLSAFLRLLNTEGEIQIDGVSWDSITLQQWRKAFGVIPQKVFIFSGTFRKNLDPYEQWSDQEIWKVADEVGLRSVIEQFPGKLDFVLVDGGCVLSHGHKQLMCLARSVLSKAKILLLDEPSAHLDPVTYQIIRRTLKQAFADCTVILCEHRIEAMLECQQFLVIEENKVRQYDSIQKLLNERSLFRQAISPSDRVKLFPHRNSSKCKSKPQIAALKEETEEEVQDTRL

One may read the Emax as the greatest response seen or fitted, relative to the assay's reference. Usually EC50 stands for the concentration at which the effect is half-maximal. Take `Cc1nsc2[nH]cc(C(=O)Nc3ccc(N4CC[C@H](F)C4)cc3C(F)(F)F)c(=O)c12` [Compound 10]: the maximal response (Emax) lay within 25 to 100% and the EC50 is < 10 µM.
Taken in the same sequence, the figures for `Cc1cc(C2CCCC2)c(O)cc1NC(=O)c1c[nH]c2snc(C)c2c1=O` [Compound 16] were 25 to 100% and < 10 µM.
Taken in the same sequence, the figures for `Cc1nsc2[nH]cc(C(=O)Nc3cc(O)c(C(C)(C)C)cc3C(C)(C)C)c(=O)c12` [Compound 3] were 25 to 100% and < 10 µM.
Regarding `Cc1nsc2[nH]cc(C(=O)Nc3cc4[nH]ccc4cc3C(F)(F)F)c(=O)c12` [Compound 9], the Emax lay in the range of 25 to 100% and the EC50 is < 10 µM.
For `Cc1nsc2[nH]cc(C(=O)Nc3ccc(N4CC[C@@H](F)C4)cc3C(F)(F)F)c(=O)c12` [Compound 13] the same measures were 25 to 100% and < 10 µM.
Taken in the same sequence, the figures for `Cc1nsc2[nH]cc(C(=O)Nc3ccc4c(C(F)(F)F)c[nH]c4c3)c(=O)c12` [Compound 1] were 25 to 100% and < 10 µM.
As for `Cc1nsc2[nH]cc(C(=O)Nc3cc(O)c(C4(C)CCCCC4)cc3F)c(=O)c12` [Compound 5], the Emax lay within 25 to 100% and the EC50 is < 10 µM.
For `Cc1nsc2[nH]cc(C(=O)Nc3ccc(C(F)(F)F)c(O)c3)c(=O)c12` [Compound 6] the same measures were 25 to 100% and < 10 µM.
With `Cc1nsc2[nH]cc(C(=O)Nc3cc4[nH]ccc4cc3C(C)(C)C)c(=O)c12` [Compound 14], the Emax was in the range of 25 to 100% and the EC50 was < 10 µM.
Taken in the same sequence, the figures for `Cc1nsc2[nH]cc(C(=O)Nc3ccc(N4[C@H](C)CC[C@H]4C)cc3C(F)(F)F)c(=O)c12` [Compound 11] were 25 to 100% and < 10 µM.
Taken in the same sequence, the figures for `Cc1nsc2[nH]cc(C(=O)Nc3cc(O)c(C4CCCC4)cc3C(F)(F)F)c(=O)c12` [Compound 12] were 25 to 100% and < 10 µM.
Taken in the same sequence, the figures for `Cc1nsc2[nH]cc(C(=O)Nc3ccc(N4CCC(C)(C)C4)cc3C(F)(F)F)c(=O)c12` [Compound 8] were 25 to 100% and < 10 µM.
Take `Cc1nsc2[nH]cc(C(=O)Nc3cc(O)c(C4CCCC4)cc3C#N)c(=O)c12` [Compound 15]: the Emax was in the range of 25 to 100% and the EC50 is < 10 µM.
Take `Cc1nsc2[nH]cc(C(=O)Nc3ccc(N4CCC[C@@H]4C)cc3C(F)(F)F)c(=O)c12` [Compound 4]: the Emax lay within 25 to 100% and the EC50 was < 10 µM.
`Cc1nsc2[nH]cc(C(=O)Nc3ccc4c(C(C)(C)C)c[nH]c4c3)c(=O)c12` [Compound 2, N-(3-tert-butyl-1H-indol-6-yl)-3-methyl-4-oxo-4,7-dihydroisothiazolo[5,4-b]-pyridine-5-carboxamide]: the Emax lay within 25 to 100% and the EC50 was < 10 µM.
On to `Cc1nsc2[nH]cc(C(=O)Nc3ccc(N4CCC(F)(F)C4)cc3C(F)(F)F)c(=O)c12` [Compound 7], for which the Emax lay in the range of 25 to 100% and the concentration giving a half-maximal response (EC50) was < 10 µM.
